Drawing on patent publication US20240317706A1, “COMPOUNDS THAT MEDIATE PROTEIN DEGRADATION AND METHODS OF USE THEREOF” (Monte Rosa Therapeutics, Inc., priority 2021, published 2024), this text covers Ki and Dmax for 24 compounds.

One assay concerns the target CRBN-DDB1 (Homo sapiens, UniProt Q96SW2). Kind of assay: Compound binding to CRBN by HTRF assay. Particulars: CRBN-DDB1 2.5 nM, Cy5-Thalidomide 100 nM, 30 min; Ki from geometric mean IC50 by Cheng-Prustoff transformation. Put shortly:
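HTRF displacement of Cy5-thalidomide probe (100 nM) from His-CRBN-DDB1 (2.5 nM) with anti-His terbium cryptate, in HEPES/NaCl/TCEP/EDTA/Tween20 buffer. 10-point 1:3 compound series, 30 min at ambient temperature; signal normalised to DMSO and lenalidomide controls, IC50 fitted and Ki derived by Cheng-Prusoff.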

The next assay addresses T1, CDK2 (Homo sapiens, UniProt P24941).
T1 construct: HEK293 clonal lines with CRISPR KI HiBiT tag on CDK2 proteins; host or cells: HEK293 clonal line, CRISPR knock-in HiBiT-CDK2, stably expressing LgBiT
Kind of assay: HiBiT assay (CDK2 degradation). Format: cell-based. Particulars: HEK293 clonal line with CRISPR KI HiBiT tag on CDK2, 24 hours, HiBiT Lysis Reagent. The method, then:
HEK293 clonal lines with CRISPR KI HiBiT tag on CDK2 proteins and stably expressing LgBiT protein were obtained from Promega (Madison, WI). Cells were plated at 5000 cells per well using Multiflo (BioTek) in 384-well white solid bottom plates (Corning, 3570BC) in 25 ul volume in DMEM media (DMEM, high glucose, HEPES, no phenol red (ThermoFisher Scientific, 21063029)) containing 10% FBS (Corning, 35-075-CV), 1% Penicillin/Streptomycin (ThermoFisher Scientific, 15140-122). Cells were incubated for 16 hours at 37° C., 5% CO2. 75 nL of a compound at 30 μM were dosed into the plate using an Echo® 650 liquid handler (Labcyte). Cells were incubated at 37° C., 5% CO2 for 24 hours. 5 ul of HiBiT Lysis Reagent (Promega, N3030) is added using Combi Multidrop (ThermoFisher Scientific), plates are incubated for 15′ at 37° C., 5% CO2 and then signal was read on a Pherastar FSX using “LUM plus” optic module.
Analysis was performed in Scinamic (Scinamic, Cambridge, MA). Luminescence response (R) was calculated by the formula: response=100*(S−N)/(P−N) where S is the signal of the well, N and P the mean negative and positive control values respectively of the same plate. The luminescence response was then fitted in Scinamic using a 3-parameter agonist logistic fit (hillslope=1, EC50>0, top/bottom unconstrained).
On the technique in general: With HiBiT, luminescence reflects the tagged protein that the partner subunit can reach.

Sequence of CRBN-DDB1 (Q96SW2 whole entry): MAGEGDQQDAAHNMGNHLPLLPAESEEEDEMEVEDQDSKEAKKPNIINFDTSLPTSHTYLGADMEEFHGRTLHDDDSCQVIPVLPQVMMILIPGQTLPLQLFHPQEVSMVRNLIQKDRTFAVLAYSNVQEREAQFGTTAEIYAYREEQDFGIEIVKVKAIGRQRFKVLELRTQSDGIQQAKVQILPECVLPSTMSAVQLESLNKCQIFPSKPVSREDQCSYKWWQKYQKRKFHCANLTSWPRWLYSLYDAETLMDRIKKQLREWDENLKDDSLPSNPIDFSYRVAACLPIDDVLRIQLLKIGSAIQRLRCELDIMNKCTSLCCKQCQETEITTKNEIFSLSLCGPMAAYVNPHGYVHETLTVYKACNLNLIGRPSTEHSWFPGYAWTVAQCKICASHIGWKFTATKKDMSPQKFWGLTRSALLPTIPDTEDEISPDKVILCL
Sequence of CRBN-DDB1 (Q16531 whole entry partner): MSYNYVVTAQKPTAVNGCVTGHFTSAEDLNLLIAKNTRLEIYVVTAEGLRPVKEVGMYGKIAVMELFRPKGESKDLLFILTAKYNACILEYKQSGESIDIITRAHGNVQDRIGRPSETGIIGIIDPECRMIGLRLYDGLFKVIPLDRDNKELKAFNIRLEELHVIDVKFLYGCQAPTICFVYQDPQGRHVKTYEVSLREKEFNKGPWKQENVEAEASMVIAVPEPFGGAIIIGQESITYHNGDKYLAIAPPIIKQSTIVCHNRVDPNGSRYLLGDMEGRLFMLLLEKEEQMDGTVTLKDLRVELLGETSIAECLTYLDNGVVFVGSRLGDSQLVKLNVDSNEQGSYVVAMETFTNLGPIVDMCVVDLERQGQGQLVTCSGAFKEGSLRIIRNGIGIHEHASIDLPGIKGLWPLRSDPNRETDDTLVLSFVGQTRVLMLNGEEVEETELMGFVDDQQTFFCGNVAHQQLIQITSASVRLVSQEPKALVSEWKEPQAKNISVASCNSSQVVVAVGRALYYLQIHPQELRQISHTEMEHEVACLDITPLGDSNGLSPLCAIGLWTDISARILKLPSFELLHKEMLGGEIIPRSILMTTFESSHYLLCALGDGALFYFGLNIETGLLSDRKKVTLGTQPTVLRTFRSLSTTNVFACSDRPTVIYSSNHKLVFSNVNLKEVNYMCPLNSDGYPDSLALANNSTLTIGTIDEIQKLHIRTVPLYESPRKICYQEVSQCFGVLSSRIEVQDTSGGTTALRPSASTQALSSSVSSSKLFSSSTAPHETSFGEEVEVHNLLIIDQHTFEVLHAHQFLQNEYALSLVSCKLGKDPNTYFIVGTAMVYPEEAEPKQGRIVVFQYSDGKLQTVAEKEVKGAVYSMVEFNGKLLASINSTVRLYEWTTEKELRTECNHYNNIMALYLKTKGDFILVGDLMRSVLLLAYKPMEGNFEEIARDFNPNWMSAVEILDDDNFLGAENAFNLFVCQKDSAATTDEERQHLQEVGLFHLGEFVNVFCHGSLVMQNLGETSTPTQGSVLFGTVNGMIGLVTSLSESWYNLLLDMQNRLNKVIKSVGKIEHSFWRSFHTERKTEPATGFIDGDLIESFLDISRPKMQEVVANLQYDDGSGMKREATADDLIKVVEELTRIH

In turn, `CC1(COC(=O)NCc2ccc3c(c2)C(=O)N(C2CCC(=O)NC2=O)C3)COC1` (stereo not drawn) [Compound 16, (3-methyloxetan-3-yl)methyl N-{[2-(2,6-dioxopiperidin-3-yl)-3-oxo-2,3-dihydro-1H-isoindol-5-yl]methyl}carbamate] had an inhibitory constant (Ki) on CRBN-DDB1 of 100 to 1000 nM. In addition, at CDK2, the greatest degradation seen (Dmax) is no more than 10%.
The corresponding values for `O=C1CCC(N2Cc3ccc(CNC(=O)OCC4CCC(F)(F)C4)cc3C2=O)C(=O)N1` (stereo not drawn) [Compound 54, (3,3-difluorocyclopentyl)methyl N-{[2-(2,6-dioxopiperidin-3-yl)-3-oxo-2,3-dihydro-1H-isoindol-5-yl]methyl}carbamate] are 100 to 1000 nM and 10 to 50%.
The matching figures for `O=C1CCC(N2Cc3ccc(CNC(=O)OCCOC4CC4)cc3C2=O)C(=O)N1` (stereo not drawn) [Compound 21, 2-cyclopropoxyethyl N-{[2-(2,6-dioxopiperidin-3-yl)-3-oxo-2,3-dihydro-1H-isoindol-5-yl]methyl}carbamate]: 100 to 1000 nM and no more than 10%.
`CCOC1CC(COC(=O)NCc2ccc3c(c2)C(=O)N(C2CCC(=O)NC2=O)C3)C1` (stereo not drawn) [Compound 67, (3-ethoxycyclobutyl)methyl N-{[2-(2,6-dioxopiperidin-3-yl)-3-oxo-2,3-dihydro-1H-isoindol-5-yl]methyl}carbamate]: the inhibition constant Ki at CRBN-DDB1 is 100 to 1000 nM. Besides, the Dmax at CDK2 was in the range of 10 to 50%.
The corresponding values for `CN1CCC(COC(=O)NCc2ccc3c(c2)C(=O)N(C2CCC(=O)NC2=O)C3)CC1` (stereo not drawn) [Compound 34, (1-methylpiperidin-4-yl)methyl N-{[2-(2,6-dioxopiperidin-3-yl)-3-oxo-2,3-dihydro-1H-isoindol-5-yl]methyl}carbamate] are 100 to 1000 nM and no more than 10%.
The corresponding values for `O=C1CCC(N2Cc3ccc(CNC(=O)OCC4CC5(C4)CC54CCC4)cc3C2=O)C(=O)N1` (stereo not drawn) [Compound 93, {dispiro[3.0.3^5.1^4]nonan-2-yl}methyl N-{[2-(2,6-dioxopiperidin-3-yl)-3-oxo-2,3-dihydro-1H-isoindol-5-yl]methyl}carbamate] are no more than 100 nM and 50 to 80%.
The matching figures for `O=C1CCC(N2Cc3ccc(CNC(=O)OC4CC5(CCCCC5)C4)cc3C2=O)C(=O)N1` (stereo not drawn) [Compound 4, spiro[3.5]nonan-2-yl ((2-(2,6-dioxopiperidin-3-yl)-3-oxoisoindolin-5-yl)methyl)carbamate]: 100 to 1000 nM and 50 to 80%.
On CRBN-DDB1, `CC1(CCCOC(=O)NCc2ccc3c(c2)C(=O)N(C2CCC(=O)NC2=O)C3)CC1` (stereo not drawn) [Compound 65, 3-(1-methylcyclopropyl)propyl N-{[2-(2,6-dioxopiperidin-3-yl)-3-oxo-2,3-dihydro-1H-isoindol-5-yl]methyl}carbamate] had an inhibition constant (Ki) of no more than 100 nM. On CDK2, this compound displayed a Dmax of 50 to 80%.
The corresponding values for `O=C1CCC(N2Cc3ccc(CNC(=O)OCC4CC45CCC(F)(F)CC5)cc3C2=O)C(=O)N1` (stereo not drawn) [Compound 95, {6,6-difluorospiro[2.5]octan-1-yl}methyl N-{[2-(2,6-dioxopiperidin-3-yl)-3-oxo-2,3-dihydro-1H-isoindol-5-yl]methyl}carbamate] are 100 to 1000 nM and 10 to 50%.
The corresponding values for `O=C1CCC(N2Cc3ccc(CNC(=O)OCC4CC5(CCCC5)CO4)cc3C2=O)C(=O)N1` (stereo not drawn) [Compound 94, {2-oxaspiro[4.4]nonan-3-yl}methyl N-{[2-(2,6-dioxopiperidin-3-yl)-3-oxo-2,3-dihydro-1H-isoindol-5-yl]methyl}carbamate] are 100 to 1000 nM and 10 to 50%.
The corresponding values for `O=C1CCC(N2Cc3ccc(CNC(=O)OCC4(c5ccccc5)CC(F)(F)C4)cc3C2=O)C(=O)N1` (stereo not drawn) [Compound 38, (3,3-difluoro-1-phenylcyclobutyl)methyl N-{[2-(2,6-dioxopiperidin-3-yl)-3-oxo-2,3-dihydro-1H-isoindol-5-yl]methyl}carbamate] are no more than 100 nM and 10 to 50%.
Compound `O=C1CCC(N2Cc3ccc(CNC(=O)OC4CC5(CCC5)C4)cc3C2=O)C(=O)N1` (stereo not drawn) [Compound 3, spiro[3.3]heptan-2-yl ((2-(2,6-dioxopiperidin-3-yl)-3-oxoisoindolin-5-yl)methyl)carbamate] displayed an inhibition constant Ki at CRBN-DDB1 of 100 to 1000 nM. The compound further showed a Dmax on CDK2 of 10 to 50%.
The corresponding values for `O=C1CCC(N2Cc3ccc(CNC(=O)OCCC4CC(F)(F)C4)cc3C2=O)C(=O)N1` (stereo not drawn) [Compound 47, 2-(3,3-difluorocyclobutyl)ethyl N-{[2-(2,6-dioxopiperidin-3-yl)-3-oxo-2,3-dihydro-1H-isoindol-5-yl]methyl}carbamate] are 100 to 1000 nM and 10 to 50%.
The matching figures for `O=C1CCC(N2Cc3ccc(CNC(=O)OCC4CCC(F)(F)CC4)cc3C2=O)C(=O)N1` (stereo not drawn) [Compound 88, (4,4-difluorocyclohexyl)methyl N-{[2-(2,6-dioxopiperidin-3-yl)-3-oxo-2,3-dihydro-1H-isoindol-5-yl]methyl}carbamate]: 100 to 1000 nM and 10 to 50%.
The matching figures for `O=C1CCC(N2Cc3ccc(CNC(=O)OCC4CC(F)(F)C4)cc3C2=O)C(=O)N1` (stereo not drawn) [Compound 46, (3,3-difluorocyclobutyl)methyl N-{[2-(2,6-dioxopiperidin-3-yl)-3-oxo-2,3-dihydro-1H-isoindol-5-yl]methyl}carbamate]: no more than 100 nM and 10 to 50%.
In the case of `C[C@H]1C[C@@H]1COC(=O)NCc1ccc2c(c1)C(=O)N(C1CCC(=O)NC1=O)C2` (stereo partly drawn) [Compound 25, [(1S,2S)-2-methylcyclopropyl]methyl N-{[2-(2,6-dioxopiperidin-3-yl)-3-oxo-2,3-dihydro-1H-isoindol-5-yl]methyl}carbamate], the inhibition constant Ki on CRBN-DDB1 fell in the range of 100 to 1000 nM. At CDK2, this compound showed a Dmax of no more than 10%.
The corresponding values for `C[C@H]1CCC[C@@H]1OC(=O)NCc1ccc2c(c1)C(=O)N(C1CCC(=O)NC1=O)C2` (stereo partly drawn) [Compound 32, (1S,2S)-2-methylcyclopentyl N-{[2-(2,6-dioxopiperidin-3-yl)-3-oxo-2,3-dihydro-1H-isoindol-5-yl]methyl}carbamate] are 100 to 1000 nM and 10 to 50%.
The corresponding values for `CC1(C)CCC(OC(=O)NCc2ccc3c(c2)CN(C2CCC(=O)NC2=O)C3=O)CC1` (stereo not drawn) [Compound 15, 4,4-dimethylcyclohexyl N-{[2-(2,6-dioxopiperidin-3-yl)-1-oxo-2,3-dihydro-1H-isoindol-5-yl]methyl}carbamate] are no more than 100 nM and 50 to 80%.
The corresponding values for `O=C1CCC(N2Cc3ccc(CNC(=O)OC4CCc5ccccc5C4)cc3C2=O)C(=O)N1` (stereo not drawn) [Compound 17, 1,2,3,4-tetrahydronaphthalen-2-yl N-{[2-(2,6-dioxopiperidin-3-yl)-3-oxo-2,3-dihydro-1H-isoindol-5-yl]methyl}carbamate] are 100 to 1000 nM and 10 to 50%.
In turn, `CC(C)(C)C1CC(OC(=O)NCc2ccc3c(c2)C(=O)N(C2CCC(=O)NC2=O)C3)C1` (stereo not drawn) [Compound 84, 3-tert-butylcyclobutyl N-{[2-(2,6-dioxopiperidin-3-yl)-3-oxo-2,3-dihydro-1H-isoindol-5-yl]methyl}carbamate] showed a Ki at CRBN-DDB1 of 100 to 1000 nM. Further, the maximal degradation (Dmax) at CDK2 was 50 to 80%.
The matching figures for `O=C1CCC(N2Cc3ccc(CNC(=O)OCC4(F)CCC4)cc3C2=O)C(=O)N1` (stereo not drawn) [Compound 74, (1-fluorocyclobutyl)methyl N-{[2-(2,6-dioxopiperidin-3-yl)-3-oxo-2,3-dihydro-1H-isoindol-5-yl]methyl}carbamate]: 100 to 1000 nM and no more than 10%.
Compound `O=C1CCC(N2Cc3ccc(CNC(=O)OC4CC4)cc3C2=O)C(=O)N1` (stereo not drawn) [Compound 14, cyclopropyl N-{[2-(2,6-dioxopiperidin-3-yl)-3-oxo-2,3-dihydro-1H-isoindol-5-yl]methyl}carbamate] gave an inhibition constant Ki on CRBN-DDB1 of 100 to 1000 nM. Also, the Dmax at CDK2 is 10 to 50%.
`O=C1CCC(N2Cc3ccc(CNC(=O)OCCOC4COC4)cc3C2=O)C(=O)N1` (stereo not drawn) [Compound 33, 2-(oxetan-3-yloxy)ethyl N-{[2-(2,6-dioxopiperidin-3-yl)-3-oxo-2,3-dihydro-1H-isoindol-5-yl]methyl}carbamate] showed a Ki at CRBN-DDB1 of 100 to 1000 nM. In addition, the Dmax on CDK2 is 10 to 50%.
The matching figures for `O=C1CCC(N2Cc3ccc(CNC(=O)OC4CC5(CCOCC5)C4)cc3C2=O)C(=O)N1` (stereo not drawn) [Compound 90, 7-oxaspiro[3.5]nonan-2-yl N-{[2-(2,6-dioxopiperidin-3-yl)-3-oxo-2,3-dihydro-1H-isoindol-5-yl]methyl}carbamate]: 100 to 1000 nM and 10 to 50%.

The term Ki denotes the equilibrium dissociation constant of an inhibitor or competing ligand from its target. Higher therefore signals weaker binding. One may read the Dmax as the largest share of the target that was removed. Lower therefore signals a partial loss of target.
